Data as given in PubChem BioAssay AID1963863 (Molecular Pharmacology Branch, DTP, NCI, 2024).

Tested on: 931267-113-T-J1-PDC KRAS spheroid with HUVEC/MSC, viability
Experiment: Anticancer human tumor 931267-113-T-J1-PDC patient-derived colon adenocarcinoma cell line growth inhibition [KRAS2]
Details: for IC50: curve of first compound; for viability, T/C: stronger effect = lower value
Outline: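 KRAS-mutant tumor cells were grown as spheroids with HUVEC endothelial cells and human MSCs as stroma. Targeted agents were tested alone and with KRAS pathway inhibitors. Doses started at or near clinical Cmax, or 10 microM, descending half-log.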

[1] = second compound 0.1 µM, first compound 0.000316 µM
[2] = second compound 0.1 µM, first compound 0.001 µM
[3] = second compound 0.1 µM, first compound 0.00316 µM
[4] = second compound 0.1 µM, first compound 0.01 µM
[5] = second compound 0.1 µM, first compound 0.0316 µM
[6] = second compound 0.316 µM, first compound 0.000316 µM
[7] = second compound 0.316 µM, first compound 0.001 µM
[8] = second compound 0.316 µM, first compound 0.00316 µM
[9] = second compound 0.316 µM, first compound 0.01 µM
[10] = second compound 0.316 µM, first compound 0.0316 µM
[11] = second compound 1 µM, first compound 0.000316 µM
[12] = second compound 1 µM, first compound 0.001 µM
[13] = second compound 1 µM, first compound 0.00316 µM
[14] = second compound 1 µM, first compound 0.01 µM
[15] = second compound 1 µM, first compound 0.0316 µM
[16] = second compound 3.16 µM, first compound 0.000316 µM
[17] = second compound 3.16 µM, first compound 0.001 µM
[18] = second compound 3.16 µM, first compound 0.00316 µM
[19] = second compound 3.16 µM, first compound 0.01 µM
[20] = second compound 3.16 µM, first compound 0.0316 µM
[21] = second compound 10 µM, first compound 0.000316 µM
[22] = second compound 10 µM, first compound 0.001 µM
[23] = second compound 10 µM, first compound 0.00316 µM
[24] = second compound 10 µM, first compound 0.01 µM
[25] = second compound 10 µM, first compound 0.0316 µM
[26] = second compound 0.1 µM, first compound 0.1 µM
[27] = second compound 0.316 µM, first compound 0.1 µM
[28] = second compound 1 µM, first compound 0.1 µM
[29] = second compound 3.16 µM, first compound 0.1 µM
[30] = second compound 10 µM, first compound 0.1 µM
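Further: compound exposure lasted 7 days before the readout.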
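Wherever viability, T/C is given: 100% = DMSO vehicle control viability.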

Compound	IC50 (second compound 0.1 µM) [nM]	IC50 (second compound 0.316 µM) [nM]	IC50 (second compound 1 µM) [nM]	IC50 (second compound 3.16 µM) [nM]	IC50 (second compound 10 µM) [nM]	viability, T/C [1] [%]	viability, T/C [2] [%]	viability, T/C [3] [%]	viability, T/C [4] [%]	viability, T/C [5] [%]	viability, T/C [6] [%]	viability, T/C [7] [%]	viability, T/C [9] [%]	viability, T/C [10] [%]	viability, T/C [14] [%]	viability, T/C [15] [%]	viability, T/C [19] [%]	viability, T/C [20] [%]	viability, T/C [24] [%]	viability, T/C [25] [%]	further results
CC(=O)Nc1cccc(-n2c(=O)n(C3CC3)c(=O)c3c(Nc4ccc(I)cc4F)n(C)c(=O)c(C)c32)c1 + CNCc1ccccc1-c1csc(C(C)Nc2nc(C)nc3cc(OC)c(OC)cc23)c1	9.09	6.7	< 0.1	< 0.1	< 0.1	89.1	75.8	59.7	56	14.1	111	83.3	47.8	25.3	2.02	1.26	0.19	0.41	0.15	2.55	viability, T/C (second compound 0.1 µM, first compound 0.0001 µM): 86.5%; viability, T/C (second compound 0.316 µM, first compound 0.0001 µM): 91.8%; viability, T/C [8]: 60.8%; viability, T/C (second compound 1 µM, first compound 0.0001 µM): 50.4%; viability, T/C [11]: 17%; viability, T/C [12]: 1.23%; viability, T/C [13]: 10.3%; viability, T/C (second compound 3.16 µM, first compound 0.0001 µM): 1.06%; viability, T/C [16]: 0.32%; viability, T/C [17]: 0.34%; viability, T/C [18]: 0.19%; viability, T/C (second compound 10 µM, first compound 0.0001 µM): 0.57%; viability, T/C [21]: 0.16%; viability, T/C [22]: 0.14%; viability, T/C [23]: 0.13%
CC(=O)OC12COC1CC(O)C1(C)C(=O)C(O)C3=C(C)C(OC(=O)C(O)C(NC(=O)OC(C)(C)C)c4ccccc4)CC(O)(C(OC(=O)c4ccccc4)C21)C3(C)C (stereo not given) + CNCc1ccccc1-c1csc(C(C)Nc2nc(C)nc3cc(OC)c(OC)cc23)c1	> 3160	> 3160	> 3160	< 10	< 10	–	–	–	88.2	99.3	–	–	109	110	106	105	0.73	102	0.33	0.34	viability, T/C [26]: 109%; viability, T/C (second compound 0.1 µM, first compound 0.316 µM): 98.9%; viability, T/C (second compound 0.1 µM, first compound 1 µM): 82%; viability, T/C (second compound 0.1 µM, first compound 3.16 µM): 87.8%; viability, T/C [27]: 89.7%; viability, T/C (second compound 0.316 µM, first compound 0.316 µM): 96.4%; viability, T/C (second compound 0.316 µM, first compound 1 µM): 101%; viability, T/C (second compound 0.316 µM, first compound 3.16 µM): 113%; viability, T/C [28]: 91.3%; viability, T/C (second compound 1 µM, first compound 0.316 µM): 111%; viability, T/C (second compound 1 µM, first compound 1 µM): 89.7%; viability, T/C (second compound 1 µM, first compound 3.16 µM): 77.4%; viability, T/C [29]: 0.55%; viability, T/C (second compound 3.16 µM, first compound 0.316 µM): 0.5%; viability, T/C (second compound 3.16 µM, first compound 1 µM): 0.41%; viability, T/C (second compound 3.16 µM, first compound 3.16 µM): 105%; viability, T/C [30]: 0.31%; viability, T/C (second compound 10 µM, first compound 0.316 µM): 0.36%; viability, T/C (second compound 10 µM, first compound 1 µM): 0.18%; viability, T/C (second compound 10 µM, first compound 3.16 µM): 0.93%
CN(C)C/C=C/C(=O)Nc1cc2c(Nc3ccc(F)c(Cl)c3)ncnc2cc1O[C@H]1CCOC1 + CNCc1ccccc1-c1csc(C(C)Nc2nc(C)nc3cc(OC)c(OC)cc23)c1	> 100	> 100	0.489	2.02	< 0.316	88	80.3	90.3	97.7	78	114	104	76.7	78.4	21.8	33.7	0.29	68.5	0.45	0.17	viability, T/C [26]: 88%; viability, T/C [8]: 106%; viability, T/C [27]: 79.8%; viability, T/C [11]: 69.9%; viability, T/C [12]: 12.7%; viability, T/C [13]: 16.5%; viability, T/C [28]: 1.43%; viability, T/C [16]: 94.4%; viability, T/C [17]: 108%; viability, T/C [18]: 0.36%; viability, T/C [29]: 0.32%; viability, T/C [21]: 0.23%; viability, T/C [22]: 0.22%; viability, T/C [23]: 0.24%; viability, T/C [30]: 0.22%
